Reference: ChEMBL document CHEMBL4706552, “Discovery of 4-methyl-N-(4-((4-methylpiperazin- 1-yl)methyl)-3-(trifluoromethyl)phenyl)-3-((6-(pyridin-3-yl)-1H-pyrazolo[3,4-d]pyrimidin-4-yl)-oxy)benzamide as a potent inhibitor of RET and its gatekeeper mutant” (Eur J Med Chem, 2020)
Activity calls are given as the source filed them. The calls are words filed in the database; no cut-off is given here.

Key:
[1] = biological target: T1, Proto-oncogene tyrosine-protein kinase receptor Ret (Homo sapiens, UniProt P07949); assay: Inhibition of RET phosphorylation in human LC-2-ad cells; type: cell-based
[2] = Cytotoxicity against mouse BaF3 cells assessed as reduction in cell proliferation measured after 48 hrs by MTS assay; type: cell-based
[3] = biological target: T1, Proto-oncogene tyrosine-protein kinase receptor Ret; assay: Inhibition of RET in human LC-2-ad cells assessed as reduction in SHC phosphorylation; type: cell-based
[4] = biological target: Kinesin-1 heavy chain/ Tyrosine-protein kinase receptor RET (Homo sapiens) (UniProt P07949+P33176); assay: Inhibition of KIF5B-RET fusion protein (unknown origin) expressed in mouse BaF3 cells assessed as reduction in cell proliferation measured after 48 hrs by MTS assay; type: cell-based
[5] = biological target: T1, Proto-oncogene tyrosine-protein kinase receptor Ret; assay: Inhibition of recombinant wild-type human N-terminal GST-HIS6 fused RET C-terminal domain (H658 to S1114 residues) expressed in Sf9 insect cells using TRK-C-derived peptide as substrate in presence of [33P]-ATP by filter binding assay
Mus musculus [6] = assay: In vivo inhibition of KIF5B-RET V804M mutant fusion protein in BALB/c mouse implanted with KIF5B-RET V804M mutant fusion protein expressing mouse BaF3 cells assessed as reduction in RET phosphorylation at 30 to 50 mg/kg, iv administered daily for 7 days and measured 4 hrs post last dose by Western blot analysis; type: functional, organism-based; conditions: dose 30-50 mg/kg, time 7.0 day
[7] = biological target: Proto-oncogene tyrosine-protein kinase receptor Ret (Homo sapiens, UniProt P07949, V804L); assay: Inhibition of recombinant human N-terminal GST-HIS6 fused RET V804L mutant C-terminal domain (H658 to S1114 residues) expressed in Sf9 insect cells using TRK-C-derived peptide as substrate in presence of [33P]-ATP by filter binding assay
[8] = Half life in Sprague-Dawley rat at 1 mg/kg, iv; type: ADME, organism-based; conditions: in vivo
[9] = test system: Kinesin-1 heavy chain/ Tyrosine-protein kinase receptor RET (Homo sapiens), P07949+P33176 [V804M]; assay: Inhibition of KIF5B-RET V804M mutant fusion protein (unknown origin) expressed in mouse BaF3 cells assessed as reduction in ERK phosphorylation at 500 nM measured after 4 hrs by Western blot analysis; type: cell-based
[10] = biological target: T2, Coiled-coil domain-containing protein 6/Tyrosine-protein kinase receptor RET (Homo sapiens) (UniProt P07949+Q16204); assay: Inhibition of CCDC6-RET fusion protein (unknown origin) expressed in mouse BaF3 cells assessed as reduction in RET phosphorylation at 10 to 500 nM measured after 4 hrs by Western blot analysis; type: cell-based; conditions: dose 10-500 nM
BaF3 [11] = assay: Antitumor activity against KIF5B-RET V804M mutant fusion protein expressing mouse BaF3 cells implanted in iv dosed BALB/c mouse assessed as tumor growth inhibition administered once daily for 7 days; type: functional, organism-based; conditions: dose 30-50 mg/kg, time 7.0 day
KYSE-450 = assay: Antiproliferative activity against human KYSE-450 cells at 3.3 uM measured after 48 hrs by MTS assay; type: functional; conditions: read-out: GI
[12] = biological target: T2, Coiled-coil domain-containing protein 6/Tyrosine-protein kinase receptor RET (Homo sapiens); assay: Inhibition of CCDC6-RET fusion protein (unknown origin) expressed in mouse BaF3 cells assessed as reduction in AKT phosphorylation at 10 to 500 nM measured after 4 hrs by Western blot analysis; type: cell-based; conditions: dose 10-500 nM
[13] = AUC (0 to t) in Sprague-Dawley rat at 10 mg/kg, po; type: ADME, organism-based; design: dose 10 mg/kg; conditions: in vivo
[14] = Cmax in Sprague-Dawley rat at 1 mg/kg, iv; type: ADME, organism-based; design: route intravenous, dose 1 mg/kg; conditions: in vivo
[15] = test system: Kinesin-1 heavy chain/ Tyrosine-protein kinase receptor RET (Homo sapiens), P07949+P33176 [V804M]; assay: Inhibition of KIF5B-RET V804M mutant fusion protein (unknown origin) expressed in mouse BaF3 cells assessed as reduction in RET autophosphorylation at 100 nM measured after 4 hrs by Western blot analysis; type: cell-based
[16] = test system: Kinesin-1 heavy chain/ Tyrosine-protein kinase receptor RET (Homo sapiens), P07949+P33176 [V804M]; assay: Inhibition of KIF5B-RET V804M mutant fusion protein (unknown origin) expressed in mouse BaF3 cells assessed as reduction in cell proliferation measured after 48 hrs by MTS assay; type: cell-based
BaF3 [17] = assay: Inhibition of CCDC6-RET V804M mutant fusion protein (unknown origin) expressed in mouse BaF3 cells assessed as reduction in RET phosphorylation at 10 to 500 nM measured after 4 hrs by Western blot analysis; type: cell-based; conditions: Homo sapiens, dose 10-500 nM
[18] = Oral bioavailability in Sprague-Dawley rat at 10 mg/kg; type: ADME, organism-based; conditions: in vivo
[19] = Toxicity in BALB/c mouse implanted with KIF5B-RET V804M mutant fusion protein expressing mouse BaF3 cells assessed as body weight loss at 30 to 50 mg/kg, iv administered daily for 7 days measured daily during compound dosing; type: organism-based; conditions: in vivo, 168 h, dose 30-50 mg/kg, time 7 day
BGC-823 = assay: Antiproliferative activity against human BGC-823 cells at 3.3 uM measured after 48 hrs by MTS assay; type: functional; conditions: read-out: GI
[20] = test system: Kinesin-1 heavy chain/ Tyrosine-protein kinase receptor RET (Homo sapiens), P07949+P33176 [V804M]; assay: Inhibition of KIF5B-RET V804M mutant fusion protein (unknown origin) expressed in mouse BaF3 cells assessed as reduction in AKT phosphorylation at 500 nM measured after 4 hrs by Western blot analysis; type: cell-based
BaF3 [21] = assay: Induction of apoptosis in KIF5B-RET fusion protein expressing mouse BaF3 cells implanted in BALB/c mouse assessed as increase in cleaved caspase-3 level at 30 to 50 mg/kg, iv administered once daily for 7 days measured 4 hrs post last dose by H and E staining based immunohistochemical analysis; type: functional, organism-based; conditions: dose 30-50 mg/kg, time 7.0 day
HepG2 = assay: Antiproliferative activity against human HepG2 cells at 3.3 uM measured after 48 hrs by MTS assay; type: functional; conditions: read-out: GI
[22] = biological target: T1, Proto-oncogene tyrosine-protein kinase receptor Ret; assay: Binding affinity to wild-type human partial length RET (E713 to D1014 residues) expressed in bacterial expression system assessed as residual binding level at 1 uM by kinomescan method relative to control
BaF3 [23] = assay: Induction of apoptosis in KIF5B-RET V804M mutant fusion protein expressing mouse BaF3 cells implanted in BALB/c mouse assessed as increase in cleaved PARP level at 30 to 50 mg/kg, iv administered once daily for 7 days measured 4 hrs post last dose by Western blot analysis; type: functional, organism-based; conditions: dose 30-50 mg/kg, time 7.0 day
Mus musculus [24] = assay: In vivo inhibition of KIF5B-RET V804M mutant fusion protein in BALB/c mouse implanted with KIF5B-RET V804M mutant fusion protein expressing mouse BaF3 cells assessed as reduction in SHC phosphorylation at 30 to 50 mg/kg, iv administered daily for 7 days and measured 4 hrs post last dose by Western blot analysis; type: functional, organism-based; conditions: dose 30-50 mg/kg, time 7.0 day
[25] = Cmax in Sprague-Dawley rat at 10 mg/kg, po; type: ADME, organism-based; design: route oral, dose 10 mg/kg; conditions: in vivo
BaF3 [26] = assay: Inhibition of CCDC6-RET V804M mutant fusion protein (unknown origin) expressed in mouse BaF3 cells assessed as reduction in cell proliferation measured after 48 hrs by MTS assay; type: cell-based; conditions: Homo sapiens
BaF3 [27] = assay: Inhibition of CCDC6-RET V804M mutant fusion protein (unknown origin) expressed in mouse BaF3 cells assessed as reduction in ERK phosphorylation at 10 to 500 nM measured after 4 hrs by Western blot analysis; type: cell-based; conditions: Homo sapiens, dose 10-500 nM
[28] = Antiproliferative activity against human SKGT4 cells measured after 48 hrs by MTS assay; type: functional
[29] = AUC (0 to infinity) in Sprague-Dawley rat at 1 mg/kg, iv; type: ADME, organism-based; design: route intravenous, time infinity, dose 1 mg/kg; conditions: in vivo
[30] = Tmax in Sprague-Dawley rat at 1 mg/kg, iv; type: ADME, organism-based; conditions: in vivo

T1 sequence (P07949 whole entry): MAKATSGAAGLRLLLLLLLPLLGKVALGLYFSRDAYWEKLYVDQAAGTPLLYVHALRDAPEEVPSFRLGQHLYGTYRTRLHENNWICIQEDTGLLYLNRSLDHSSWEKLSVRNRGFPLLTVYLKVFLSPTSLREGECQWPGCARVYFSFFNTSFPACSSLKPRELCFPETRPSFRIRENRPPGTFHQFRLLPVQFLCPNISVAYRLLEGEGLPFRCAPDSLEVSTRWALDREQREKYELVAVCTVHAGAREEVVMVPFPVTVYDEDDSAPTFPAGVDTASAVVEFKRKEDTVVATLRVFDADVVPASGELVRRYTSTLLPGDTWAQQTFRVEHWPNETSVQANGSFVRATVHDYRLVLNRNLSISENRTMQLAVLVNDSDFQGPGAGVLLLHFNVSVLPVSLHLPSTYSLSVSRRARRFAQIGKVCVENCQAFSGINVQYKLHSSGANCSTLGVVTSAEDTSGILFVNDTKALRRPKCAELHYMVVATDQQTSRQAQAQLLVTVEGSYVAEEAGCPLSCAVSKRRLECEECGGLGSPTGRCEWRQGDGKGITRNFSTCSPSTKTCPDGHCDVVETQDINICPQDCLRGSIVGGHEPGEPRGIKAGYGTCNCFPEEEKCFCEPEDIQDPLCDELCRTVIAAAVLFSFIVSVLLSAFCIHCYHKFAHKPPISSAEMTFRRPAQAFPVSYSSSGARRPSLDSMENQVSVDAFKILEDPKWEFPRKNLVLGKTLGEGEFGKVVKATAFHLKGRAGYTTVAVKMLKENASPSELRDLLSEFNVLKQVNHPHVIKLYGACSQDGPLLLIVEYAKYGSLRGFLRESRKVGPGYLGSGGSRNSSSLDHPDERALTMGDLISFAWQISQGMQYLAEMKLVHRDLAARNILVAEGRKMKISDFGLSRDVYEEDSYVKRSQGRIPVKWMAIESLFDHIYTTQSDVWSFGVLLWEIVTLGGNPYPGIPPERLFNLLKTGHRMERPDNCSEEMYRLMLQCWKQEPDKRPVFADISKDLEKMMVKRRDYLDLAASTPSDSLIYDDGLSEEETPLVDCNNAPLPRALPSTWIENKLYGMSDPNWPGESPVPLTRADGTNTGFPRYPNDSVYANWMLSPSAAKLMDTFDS
T2 sequence (P07949 29-1114 limits assumed): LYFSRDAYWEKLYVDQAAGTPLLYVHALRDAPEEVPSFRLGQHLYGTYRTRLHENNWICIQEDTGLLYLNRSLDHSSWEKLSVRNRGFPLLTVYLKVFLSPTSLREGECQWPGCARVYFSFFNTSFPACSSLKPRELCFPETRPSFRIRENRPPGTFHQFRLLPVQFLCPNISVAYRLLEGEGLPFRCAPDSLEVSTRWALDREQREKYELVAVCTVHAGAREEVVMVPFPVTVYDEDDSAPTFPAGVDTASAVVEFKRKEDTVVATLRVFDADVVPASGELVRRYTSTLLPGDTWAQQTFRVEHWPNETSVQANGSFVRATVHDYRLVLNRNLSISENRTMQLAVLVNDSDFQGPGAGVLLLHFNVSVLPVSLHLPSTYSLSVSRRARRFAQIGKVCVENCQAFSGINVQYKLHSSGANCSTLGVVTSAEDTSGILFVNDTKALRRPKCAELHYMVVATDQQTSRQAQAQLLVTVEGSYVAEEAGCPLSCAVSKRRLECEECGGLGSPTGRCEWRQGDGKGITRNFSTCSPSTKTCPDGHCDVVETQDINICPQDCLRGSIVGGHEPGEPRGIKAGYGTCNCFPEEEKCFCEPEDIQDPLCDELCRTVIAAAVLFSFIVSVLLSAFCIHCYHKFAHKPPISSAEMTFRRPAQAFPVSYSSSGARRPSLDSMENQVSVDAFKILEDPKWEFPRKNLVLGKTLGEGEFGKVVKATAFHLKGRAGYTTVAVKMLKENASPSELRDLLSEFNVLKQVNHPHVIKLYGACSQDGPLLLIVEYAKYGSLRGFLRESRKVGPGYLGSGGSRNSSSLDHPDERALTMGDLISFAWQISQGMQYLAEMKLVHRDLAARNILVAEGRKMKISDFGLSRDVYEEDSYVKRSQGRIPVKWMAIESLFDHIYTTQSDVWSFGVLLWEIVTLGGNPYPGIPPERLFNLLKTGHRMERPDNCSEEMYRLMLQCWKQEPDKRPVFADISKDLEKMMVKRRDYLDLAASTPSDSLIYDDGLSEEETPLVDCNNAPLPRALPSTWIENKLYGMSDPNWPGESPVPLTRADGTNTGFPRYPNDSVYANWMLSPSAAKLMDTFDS
T2 sequence (Q16204 2-474 partner limits assumed): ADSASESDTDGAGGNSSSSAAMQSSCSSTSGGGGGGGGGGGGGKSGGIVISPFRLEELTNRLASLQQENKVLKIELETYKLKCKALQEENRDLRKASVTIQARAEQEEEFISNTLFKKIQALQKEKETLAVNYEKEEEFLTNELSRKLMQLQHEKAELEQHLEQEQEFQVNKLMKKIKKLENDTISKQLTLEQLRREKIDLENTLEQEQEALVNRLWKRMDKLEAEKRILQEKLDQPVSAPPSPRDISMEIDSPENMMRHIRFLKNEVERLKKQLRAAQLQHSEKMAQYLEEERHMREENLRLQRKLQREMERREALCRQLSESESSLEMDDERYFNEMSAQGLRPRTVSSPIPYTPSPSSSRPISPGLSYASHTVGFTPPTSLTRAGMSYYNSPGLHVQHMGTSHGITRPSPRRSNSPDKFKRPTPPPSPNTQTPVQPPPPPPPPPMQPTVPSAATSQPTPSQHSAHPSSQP
Sequence of Kinesin-1 heavy chain/ Tyrosine-protein kinase receptor RET (Homo sapiens) (P07949 29-1114 limits assumed): as the sequence (P07949 29-1114 limits assumed) above
Sequence of Kinesin-1 heavy chain/ Tyrosine-protein kinase receptor RET (Homo sapiens) (P33176 2-963 partner limits assumed): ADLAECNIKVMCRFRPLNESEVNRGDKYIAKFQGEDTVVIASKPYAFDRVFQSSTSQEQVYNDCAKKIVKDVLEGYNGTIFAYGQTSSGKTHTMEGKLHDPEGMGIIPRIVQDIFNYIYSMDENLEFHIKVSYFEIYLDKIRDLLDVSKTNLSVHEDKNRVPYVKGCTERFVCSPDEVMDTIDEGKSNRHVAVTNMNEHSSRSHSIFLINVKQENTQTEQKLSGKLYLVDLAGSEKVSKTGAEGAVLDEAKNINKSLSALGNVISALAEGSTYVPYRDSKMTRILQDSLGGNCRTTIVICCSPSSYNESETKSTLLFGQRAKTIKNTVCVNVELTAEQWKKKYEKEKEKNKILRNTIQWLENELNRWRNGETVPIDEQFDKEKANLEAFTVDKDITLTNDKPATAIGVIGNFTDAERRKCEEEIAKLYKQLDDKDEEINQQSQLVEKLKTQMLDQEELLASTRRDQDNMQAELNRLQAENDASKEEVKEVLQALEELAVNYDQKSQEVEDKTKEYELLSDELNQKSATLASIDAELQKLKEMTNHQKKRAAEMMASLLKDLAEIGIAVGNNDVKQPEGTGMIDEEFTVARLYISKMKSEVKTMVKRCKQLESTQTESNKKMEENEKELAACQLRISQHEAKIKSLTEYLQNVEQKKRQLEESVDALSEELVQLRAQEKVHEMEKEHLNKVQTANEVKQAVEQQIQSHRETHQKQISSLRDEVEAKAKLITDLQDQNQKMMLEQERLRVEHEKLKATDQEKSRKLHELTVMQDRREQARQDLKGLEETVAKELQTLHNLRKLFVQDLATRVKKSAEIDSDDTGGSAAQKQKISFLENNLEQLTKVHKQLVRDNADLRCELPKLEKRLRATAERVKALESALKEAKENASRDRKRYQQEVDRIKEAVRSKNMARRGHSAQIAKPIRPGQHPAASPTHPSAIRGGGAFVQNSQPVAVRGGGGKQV
Sequence of Proto-oncogene tyrosine-protein kinase receptor Ret (Homo sapiens, UniProt P07949, V804L) (P07949 29-1114 V804L limits assumed): as the sequence (P07949 29-1114 limits assumed) above, with V776L counted along it

Structure (SMILES): Cc1ccc(C(=O)Nc2ccc(CN3CCN(C)CC3)c(C(F)(F)F)c2)cc1Oc1nc(-c2cccnc2)nc2[nH]ncc12
- inhibition [1]: Active
- GI50 at 48 h [2]: 8030 nM
- inhibition [3]: Active
- GI50 [4]: 17 nM
- IC50 [5]: 3.98 nM
- inhibition (Mus musculus [6]): Dose-dependent effect
- IC50 [7]: 15.1 nM
- half-life [8]: 4.28 h
- inhibition [9]: Active
- inhibition [10]: Active
- Activity (BaF3 [11]): Dose-dependent effect
- inhibition of growth at 3.3 µM (KYSE-450): 39%
- inhibition [12]: Active
- AUC(0-t) [13]: 2110 ng·h/mL
- Cmax [14]: 6100 ng/mL
- inhibition [15]: Dose-dependent effect
- GI50 [16]: 21 nM
- inhibition (BaF3 [17]): Active
- bioavailability [18]: 3%
- Activity [19]: Non-Toxic
- inhibition of growth at 3.3 µM (BGC-823): 39%
- inhibition [20]: Active
- Activity (BaF3 [21]): Active
- inhibition of growth at 3.3 µM (HepG2): 33%
- Activity [22]: 0.05%
- Activity (BaF3 [23]): Active
- inhibition (Mus musculus [24]): Dose-dependent effect
- Cmax [25]: 194 ng/mL
- GI50 (BaF3 [26]): 45 nM
- inhibition (BaF3 [27]): Active
- GI50 [28]: 5370 nM
- AUC(0-inf) [29]: 7010 ng·h/mL
- Tmax [30]: 4.98 min
